From patent US11214803B2, “Modulators of YAP1 expression” (Ionis Pharmaceuticals, Inc., priority 2019, dated 2022)
Strand notation (5' to 3'): a small letter for the sugar, then the base; units joined by * are phosphorothioate-linked, units joined directly phosphodiester-linked; [ ] holds rarer units or linkages, { } end groups; capitals alone tell only the bases. k = constrained ethyl (cEt); [5mC] = 5-methylcytosine; d = 2'-deoxy (DNA)

Tested on: Yap1 mRNA
Assay: Antisense inhibition of human Yap1 in A-431 cells by cEt gapmers, single dose (Example 3, RTS36584)
Type: cell-based
How it was run: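 Free uptake, 2,000 nM, ~48 h, A-431 cells. Gapmers: 16-mer 3-10-3 cEt wings, PS backbone, 5-MeC. Readout qRT-PCR, RiboGreen-normalized, % UTC.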

[1] = Table 10, A-431 cells, 5,000 cells per well, free uptake, 2,000 nM oligonucleotide, approx. 48 hours, primer probe set RTS36584, Yap1 mRNA normalized to RIBOGREEN, percent of untreated control
[2] = Table 13, A-431 cells, 5,000 cells per well, free uptake, 2,000 nM modified oligonucleotide, approx. 48 hours, RTS36584, normalized to RIBOGREEN, Yap1 mRNA relative to untreated control cells
[3] = Table 27, Yap1 mRNA by 3-10-3 cEt gapmers targeting SEQ ID NO.: 1, and 2, percent of untreated control
[4] = Table 34, Yap1 mRNA as percent of untreated control, 3-10-3 cEt gapmers targeting SEQ ID NO: 1 and 2, single dose
[5] = Table 9, A-431 cells, 5,000 cells per well, free uptake, 2,000 nM, approximately 48 hours, RTS36584, normalized to RIBOGREEN, Yap1 mRNA relative to untreated control cells
[6] = Table 35, Yap1 mRNA as percent of untreated control, 3-10-3 cEt gapmers targeting SEQ ID NO: 1 and 2, single dose
[7] = Table 12, A-431 cells, 5,000 cells per well, free uptake, 2,000 nM modified oligonucleotide, approx. 48 hours, RTS36584, normalized to RIBOGREEN, Yap1 mRNA relative to untreated control cells
[8] = Table 26, Yap1 mRNA by 3-10-3 cEt gapmers targeting SEQ ID NO.: 1, and 2, percent of untreated control
[9] = Table 29, Yap1 mRNA as percent of untreated control, 3-10-3 cEt gapmers targeting SEQ ID NO.: 1, and 2
[10] = Table 11, A-431 cells, 5,000 cells per well, free uptake, 2,000 nM oligonucleotide, approx. 48 hours, primer probe set RTS36584, Yap1 mRNA normalized to RIBOGREEN, percent of untreated control
[11] = Table 28, Yap1 mRNA as percent of untreated control, 3-10-3 cEt gapmers targeting SEQ ID NO.: 1, and 2

In the case of “958642 (antisense kG*kA*k[5mC]*dA*dT*d[5mC]*dA*dA*dT*dT*dT*d[5mC]*dA*kG*kT*k[5mC]) [Compound 958642]”, the “YAP1 (% UTC)” value [1] was 91 % UTC.
In the case of “958632 (antisense k[5mC]*kT*k[5mC]*d[5mC]*dG*dA*d[5mC]*dA*dG*dG*dA*dG*dA*k[5mC]*kT*kA) [Compound 958632]”, the “YAP1 (% UTC)” value [1] was 55 % UTC.
“958440 (antisense kT*kG*k[5mC]*dG*d[5mC]*d[5mC]*d[5mC]*d[5mC]*dG*dG*d[5mC]*dT*d[5mC]*k[5mC]*kA*k[5mC]) [Compound 958440]” was tested, and the “YAP1 (% UTC)” value [2] was 54 % UTC.
For “958700 (antisense k[5mC]*kT*kA*dA*dT*dA*dT*dA*dG*dA*d[5mC]*dT*dA*k[5mC]*kT*k[5mC]) [Compound 958700]”, the “YAP1 (% UTC)” value [2] was 55 % UTC.
With “1074125 (kG*k[5mC]*kG*dG*d[5mC]*dT*dG*d[5mC]*dG*d[5mC]*d[5mC]*dT*d[5mC]*kG*kG*kG; antisense) [compound 1074125]” the “YAP1 (% UTC)” value [3] was 94 % UTC.
With “1075821 (k[5mC]*kT*kT*dA*dA*d[5mC]*dT*dT*d[5mC]*d[5mC]*d[5mC]*dA*d[5mC]*kT*k[5mC]*kG; antisense) [compound 1075821]” the “YAP1 (% UTC)” value [3] was 22 % UTC.
“1074925 (antisense kG*k[5mC]*k[5mC]*dT*dG*d[5mC]*dA*dA*dA*dT*dA*dG*dG*kA*kG*kA) [compound 1074925]” was tested, and the “YAP1 (% UTC)” value [3] was 94 % UTC.
With “958560 (kG*kG*kT*dG*d[5mC]*d[5mC]*dA*d[5mC]*dT*dT*dT*dA*dA*kT*kT*k[5mC]; antisense) [Compound 958560]” the “YAP1 (% UTC)” value [2] was 22 % UTC.
With “1076372 (antisense k[5mC]*kA*kA*dT*dA*dA*dG*dA*dA*d[5mC]*dG*dA*dA*k[5mC]*k[5mC]*kT) [compound 1076372]” the “YAP1 (% UTC)” value [4] was 76 % UTC.
“958517 (kT*k[5mC]*kT*dA*dG*dA*dA*d[5mC]*dA*d[5mC]*dT*dA*dA*kA*k[5mC]*kT; antisense) [Compound 958517]” was tested, and the “YAP1 (% UTC)” value [1] was 88 % UTC.
For “958787 (antisense kT*kG*kG*dG*d[5mC]*dA*dA*dA*dG*dT*dT*d[5mC]*d[5mC]*kT*k[5mC]*kT) [Compound 958787]”, the “YAP1 (% UTC)” value [1] was 67 % UTC.
For “958756 (antisense kG*kT*kG*dT*dT*dG*d[5mC]*dA*dT*dG*dA*d[5mC]*dA*kG*k[5mC]*k[5mC]) [Compound 958756]”, the “YAP1 (% UTC)” value [5] was 15 % UTC.
In the case of “958402 (antisense k[5mC]*kT*k[5mC]*dT*dT*dA*d[5mC]*dA*d[5mC]*dA*dG*d[5mC]*d[5mC]*kT*kA*kG) [Compound 958402]”, the “YAP1 (% UTC)” value (Table 8, A-431 cells, 5,000 cells per well, free uptake, 2,000 nM, approximately 48 hours, RTS36584, normalized to RIBOGREEN, Yap1 mRNA relative to untreated control cells) was 28 % UTC.
“1075637 (antisense k[5mC]*k[5mC]*kA*d[5mC]*dA*dA*d[5mC]*d[5mC]*dT*dG*dT*d[5mC]*dA*kA*kT*kA) [compound 1075637]” was tested, and the “YAP1 (% UTC)” value [6] was 100 % UTC.
In the case of “958699 (antisense kG*kA*k[5mC]*dT*dA*dG*dA*dA*dA*dG*dA*dT*d[5mC]*kA*kT*k[5mC]) [Compound 958699]”, the “YAP1 (% UTC)” value [7] was 20 % UTC.
For “1074380 (kG*kT*k[5mC]*dT*dG*dG*dG*dA*dA*dA*d[5mC]*dG*dG*kT*kT*k[5mC]; antisense) [compound 1074380]”, the “YAP1 (% UTC)” value [8] was 11 % UTC.
“1074159 (k[5mC]*kG*kA*dG*d[5mC]*dG*dA*dG*dG*dG*d[5mC]*dT*dA*k[5mC]*kG*k[5mC]; antisense) [compound 1074159]” was tested, and the “YAP1 (% UTC)” value [9] was 77 % UTC.
In the case of “1076501 (k[5mC]*kA*kT*dA*dA*d[5mC]*dA*d[5mC]*dT*dT*dA*dA*dG*kG*kT*kG; antisense) [compound 1076501]”, the “YAP1 (% UTC)” value [6] was 97 % UTC.
For “958571 (k[5mC]*kA*kA*d[5mC]*dA*dA*d[5mC]*dA*dT*dG*d[5mC]*dT*dA*kT*kG*kT; antisense) [Compound 958571]”, the “YAP1 (% UTC)” value [5] was 43 % UTC.
“1076364 (antisense k[5mC]*k[5mC]*kA*dT*dA*dA*dA*dA*dG*dT*d[5mC]*d[5mC]*dA*k[5mC]*kT*kA) [compound 1076364]” was tested, and the “YAP1 (% UTC)” value [8] was 30 % UTC.
With “958565 (kT*kT*kG*dA*dG*d[5mC]*dA*d[5mC]*dT*dG*dA*dA*dA*kG*kT*kA; antisense) [Compound 958565]” the “YAP1 (% UTC)” value [2] was 4 % UTC.
“958680 (kA*kT*kT*dA*dA*d[5mC]*dA*d[5mC]*d[5mC]*dT*dG*dA*dG*k[5mC]*kT*kG; antisense) [Compound 958680]” was tested, and the “YAP1 (% UTC)” value [2] was 50 % UTC.
With “958536 (kA*kG*kG*dG*dT*d[5mC]*dA*dA*dT*dT*dT*dT*d[5mC]*kA*kG*k[5mC]; antisense) [Compound 958536]” the “YAP1 (% UTC)” value [5] was 3 % UTC.
With “1075885 (antisense k[5mC]*kA*kT*dT*dA*dG*dT*dA*dA*dT*dG*dA*d[5mC]*kT*kA*kA) [compound 1075885]” the “YAP1 (% UTC)” value [3] was 112 % UTC.
“958662 (kG*kA*kA*d[5mC]*dA*dG*dA*dT*dA*dG*dG*dA*d[5mC]*kT*kA*k[5mC]; antisense) [Compound 958662]” was tested, and the “YAP1 (% UTC)” value [1] was 51 % UTC.
With “958572 (kA*kT*kT*dA*dT*dA*dG*dG*d[5mC]*dA*d[5mC]*dT*d[5mC]*k[5mC]*kT*kT; antisense) [Compound 958572]” the “YAP1 (% UTC)” value [1] was 5 % UTC.
“1075733 (k[5mC]*kA*kA*dT*dA*dA*d[5mC]*d[5mC]*dT*d[5mC]*dG*dA*dG*kT*kG*k[5mC]; antisense) [compound 1075733]” was tested, and the “YAP1 (% UTC)” value [6] was 28 % UTC.
“958521 (kT*kT*k[5mC]*d[5mC]*dA*dA*dT*dT*d[5mC]*dA*dT*d[5mC]*dA*kG*kA*kT; antisense) [Compound 958521]” was tested, and the “YAP1 (% UTC)” value [5] was 14 % UTC.
With “958561 (kA*k[5mC]*kA*d[5mC]*dA*dG*dA*dG*dG*dT*dG*d[5mC]*dT*kA*kG*k[5mC]; antisense) [Compound 958561]” the “YAP1 (% UTC)” value [5] was 48 % UTC.
With “1076557 (kA*kA*k[5mC]*dA*dA*dA*dT*dA*d[5mC]*d[5mC]*dA*dG*dG*kT*kT*k[5mC]; antisense) [compound 1076557]” the “YAP1 (% UTC)” value [3] was 111 % UTC.
In the case of “1074319 (antisense kG*k[5mC]*kT*dA*dA*d[5mC]*dT*d[5mC]*d[5mC]*dT*dG*dA*d[5mC]*kA*kT*kT) [compound 1074319]”, the “YAP1 (% UTC)” value [9] was 47 % UTC.
For “958676 (kG*kA*kA*d[5mC]*dT*dT*dA*dG*dT*dT*d[5mC]*d[5mC]*d[5mC]*kT*kA*kT; antisense) [Compound 958676]”, the “YAP1 (% UTC)” value [5] was 34 % UTC.
With “958763 (antisense k[5mC]*kA*k[5mC]*dA*dA*dT*dA*d[5mC]*dA*dA*dG*dA*dT*kG*k[5mC]*kA) [Compound 958763]” the “YAP1 (% UTC)” value [10] was 3 % UTC.
In the case of “1074990 (antisense kG*k[5mC]*k[5mC]*dG*d[5mC]*dA*dA*dA*dG*dG*dA*dA*dA*kG*kG*kG) [compound 1074990]”, the “YAP1 (% UTC)” value [11] was 108 % UTC.
For “958554 (kA*kA*k[5mC]*d[5mC]*dA*dT*dT*dA*dT*dT*dA*d[5mC]*dT*k[5mC]*k[5mC]*kT; antisense) [Compound 958554]”, the “YAP1 (% UTC)” value [7] was 1 % UTC.
“958544 (kG*k[5mC]*kT*dA*dA*dA*dT*dT*d[5mC]*dA*dA*d[5mC]*dT*kA*k[5mC]*k[5mC]; antisense) [Compound 958544]” was tested, and the “YAP1 (% UTC)” value [7] was 8 % UTC.
For “1074196 (antisense kG*k[5mC]*k[5mC]*d[5mC]*dG*dG*dG*dT*d[5mC]*d[5mC]*dG*dG*dA*k[5mC]*kG*kG) [compound 1074196]”, the “YAP1 (% UTC)” value [4] was 99 % UTC.
“1074895 (antisense kT*k[5mC]*k[5mC]*dT*dA*dT*dG*d[5mC]*dT*dG*dA*dA*dG*kT*kT*kT) [compound 1074895]” was tested, and the “YAP1 (% UTC)” value [9] was 60 % UTC.
With “1074996 (antisense kA*kA*kT*dA*dA*dA*dT*dG*d[5mC]*dT*dT*dA*d[5mC]*kG*kG*kG) [compound 1074996]” the “YAP1 (% UTC)” value [4] was 60 % UTC.
For “958753 (antisense kT*kG*kT*dA*dT*dA*dT*dG*d[5mC]*d[5mC]*dG*dT*dT*k[5mC]*k[5mC]*k[5mC]) [Compound 958753]”, the “YAP1 (% UTC)” value [10] was 4 % UTC.
For “1075439 (antisense kA*kA*kT*dT*dA*dG*dA*dG*dA*dT*dA*dT*dG*kG*kA*k[5mC]) [compound 1075439]”, the “YAP1 (% UTC)” value [9] was 77 % UTC.
In the case of “958810 (kT*kT*kA*dT*dA*dT*dA*d[5mC]*dG*dG*dG*dA*dA*kA*kA*kT; antisense) [Compound 958810]”, the “YAP1 (% UTC)” value [2] was 47 % UTC.
“958510 (kT*kA*k[5mC]*d[5mC]*dA*d[5mC]*dA*d[5mC]*dT*dA*dT*dT*dA*kT*kA*kA; antisense) [Compound 958510]” was tested, and the “YAP1 (% UTC)” value [2] was 43 % UTC.
With “1074926 (antisense k[5mC]*kA*kA*d[5mC]*dA*dG*dG*d[5mC]*d[5mC]*dT*dG*d[5mC]*dA*kA*kA*kT) [compound 1074926]” the “YAP1 (% UTC)” value [11] was 111 % UTC.
For “1075221 (k[5mC]*kA*kT*dT*dA*dT*d[5mC]*d[5mC]*dG*dG*dG*dA*dG*kA*kG*k[5mC]; antisense) [compound 1075221]”, the “YAP1 (% UTC)” value [6] was 10 % UTC.
In the case of “958771 (antisense k[5mC]*kT*kA*d[5mC]*dA*dG*dA*d[5mC]*dG*dA*dA*dT*dT*k[5mC]*k[5mC]*kA) [Compound 958771]”, the “YAP1 (% UTC)” value [5] was 18 % UTC.
